Source: PMC9977398, “Next-generation membrane-active glycopeptide antibiotics that also inhibit bacterial cell division” (Chemical Science, 2023)
Like-named read-outs stand apart in the source and are kept apart here.

Experiments:
[1] = tested on: VRE 51559 (vancomycin-resistant E. faecium, VanA phenotype, ATCC 51559); design: method as in PMID 32195571; conditions: previously reported; cited from earlier work
VRE ATCC 51575 = assay: Activity in blood plasma and liver homogenate; type: cell-based, E. faecalis; conditions: for MIC: Enterococcus, VRE ATCC 51575
Description: Table S1: Activity of VanQAmC10 in mouse plasma and liver homogenate against MRSA […]
MIC of VanQAmC10 post incubation in (μM) […]
Activity in blood plasma and liver homogenate
To examine the susceptibility of VanQAmC10 to serum proteases, the antibacterial activities was tested in the presence of 50% of plasma and liver homogenate. Briefly, 250 μL of VanQAmC10 was added into 250 μL of fresh […] plasma and incubated at 37 °C. An aliquot of the samples 3 h and 24h post-incubation was diluted in 0.9% saline and the antibacterial activity (MIC) were determined against MRSA and VRE by following the same protocol as described above for the antibacterial assay. […]
50 μL of ∼10^6 CFU/mL bacterial inoculum (MRSA ATCC33591) was injected into the thigh. 1 h post-inoculation, animals were treated intraperitoneally twice with 12 h intervals with saline, vancomycin (12 mg kg−1), and VanQAmC10 (12 mg kg−1). 24 h post the first treatment, the animals were euthanized (using ether) and the thighs were collected aseptically. The thigh tissue was weighed and homogenized. The dilutions of the homogenate were plated onto agar plates, which were incubated overnight at about 37 °C. […]
In-vivo activity in murine burn wound infectionmodel 10-12

[2] = tested on: VRE 51575 (vancomycin-resistant E. faecalis, VanB phenotype, ATCC 51575); design: method as in PMID 32195571; conditions: previously reported; cited from earlier work
human erythrocytes = assay: Haemolysis assay; type: cell-based; conditions: human, 1 h, pH 7.4
Description: To select the lead compounds, the toxicity of 1–10 was tested against human erythrocytes as their hemolytic activity (HC50). The HC50 is determined as the concentration at which 50% of the compound treated cells are lysed. […] The HC50 for compounds 6–8 was also greater than 500 μM. […] Based on the in vitro activity and hemolysis studies, VanQbiph (4) from the aryl-substituted compounds and VanQAmC10 (8) from the alkyl-chain substituted compounds were selected for further investigations. […] VanQAmC10 (8) was additionally non-toxic to RAW 264.7 cells up to 40 μM and was therefore taken forward in vivo investigation.[18]
50 μL of serially diluted compound was added into 96 well microtiter plates. Freshly drawn, heparanized human blood was centrifuged down to obtain the erythrocytes and re-suspended to 5 vol % in PBS (pH 7.4). 150 μL of the erythrocyte suspension was added to the serially diluted compounds (from 500 µM to 2 µM). One set without compound and other with 50 μL of 1 vol % solution of Triton X-100 were kept as controls. The plates were incubated at 37 °C for 1 h followed by centrifugation at 3,500 rpm for 5 min. 100 μL of the supernatant from each well were transferred into fresh microtiter plates, and A540 was measured.
% haemolysis = (A - A0)/(Atotal -A0) × 100, where A is the absorbance of the test well, A 0 the absorbance of the negative controls (without compound), and A total the absorbance of 100 % hemolysis wells (with Triton X -100), all at 540 nm. […]

In the case of `CCCCCCCCCCNC(=O)C[N+](C)(C)CCCNC(=O)C1NC(=O)C2NC(=O)C(NC(=O)C3NC(=O)C(CC(N)=O)NC(=O)C(NC(=O)C(CC(C)C)NC)C(O)c4ccc(c(Cl)c4)Oc4cc3cc(c4OC3OC(CO)C(O)C(O)C3OC3CC(C)(N)C(O)C(C)O3)Oc3ccc(cc3Cl)C2O)c2ccc(O)c(c2)-c2c(O)cc(O)cc21` (stereo not shown) [VanQAmC10 (8)], the “Minimum inhibitory concentration, VRE 51559” value [1] is given as 4 µM, the MIC (VRE ATCC 51575; 50% plasma, 37 °C, read-out: MIC post incubation in plasma) is given as 4 µM and the MIC (VRE ATCC 51575; read-out: MIC post incubation in liver homogenate) is given as 4 µM. The MIC (VRE ATCC 51575; read-out: MIC post incubation in media) was 4 µM, the “change of MIC in plasma and liver homogenate” value (VRE ATCC 51575; VRE) was “remained unchanged” and the “Minimum inhibitory concentration, VRE 51575” value [2] was 4 µM.

In the case of `CNC(CC(C)C)C(=O)NC1C(=O)NC(CC(N)=O)C(=O)NC2C(=O)NC3C(=O)NC(C(=O)NC(C(=O)NCCC[N+](C)(C)Cc4ccc(-c5ccccc5)cc4)c4cc(O)cc(O)c4-c4cc3ccc4O)C(O)c3ccc(c(Cl)c3)Oc3cc2cc(c3OC2OC(CO)C(O)C(O)C2OC2CC(C)(N)C(O)C(C)O2)Oc2ccc(cc2Cl)C1O` (stereo not shown) [VanQbiph (4)], the HC50 (human erythrocytes) is reported as over 500 µM.
